According to patent US7494986B2, “Cycloalkylamine derivatives as NK-1/SSRI antagonists” (Bristol-Myers Squibb Company, priority 2004, dated 2009):

Tests used:
[1] = target: T1, neurokinin-1 (NK-1) receptor (Homo sapiens, UniProt P25103); experiment: NK-1 binding assay, [125I] Substance P competition on U373 cell membranes; conditions: Bolton Hunter labeled [125I] Substance P displacement
T1 construct: endogenously expresses the neurokinin-1 (NK-1) receptor; endogenous in cells; host or cells: U373 human glioblastoma-astrocytoma cells (membranes)
Experimental: U373 cells, a human glioblastoma-astrocytoma cell line that endogenously expresses the neurokinin-1 (NK-1) receptor, were grown in a monolayer culture at 37° C. in 5% CO2 and fed with Minimum Essential Medium (MEM) supplemented with 10% fetal bovine serum. Membranes were prepared as follows: Cells were washed twice with ice-cold phosphate-buffered saline (pH 7.4) and then incubated for 5 to 10 minutes with ice-cold 10 mM Tris buffer (pH 7.4) containing 5 mM EDTA. Cells were removed from plates, homogenized, and centrifuged at 32,000×g for 20 minutes. The resulting supernatant was discarded, and the pellet resuspended by homogenization in 50 mM Tris buffer (pH 7.4) containing 1 mM EDTA and centrifuged at 32,000×g for 20 minutes. […]
On the day of an experiment the membrane preparation was thawed, homogenized and diluted with NK-1 binding assay buffer to the appropriate concentration. […] The amount of radioligand bound in the presence and absence of competitor was analyzed by plotting (−)log drug concentration versus the amount of radioligand specifically bound. […] Ki values were calculated using the method of Cheng and Prusoff [Cheng, Y.-C. and Prusoff, W. H., Biochemical Pharmacology, Vol. 22, pp. 3099-3108, Pergamon Press (1973)].

[2] = target: T2, human serotonin transporters (Homo sapiens, UniProt P31645); experiment: Serotonin transporter binding assay, [3H]-citalopram competition on HEK-hSERT cell membranes; conditions: 1 nM [3H]-citalopram displacement, read-out: SERT IC50
T2 construct: expressed in transfected cells
Experimental: HEK-293 cells that stably express human serotonin transporters (HEK-hSERT cells) were grown at 37° C. in 5% CO2 as a monolayer in medium consisting of EMEM supplemented with 10% fetal bovine serum and G418 sulfate (500 μg/ml). To prepare membranes for radioligand binding experiments, cells were rinsed twice with phosphate-buffered saline (138 mM NaCl, 4.1 mM KCl, 5.1 mM Na2PO4, 1.5 mM […], 11.1 mM glucose, pH 7.4). Cells were transferred from plates to polypropylene tubes (16×100 mm), centrifuged at 1,200×g for 5 min and were frozen at −80° C. until assay. Following centrifugation, pellets were resuspended by homogenization in buffer consisting of 50 mM Tris (pH 7.7 at 25° C.), 120 mM NaCl and 5 mM KCl and then centrifuged at 32,000×g for 10 min. Following centrifugation, supernatants were discarded and pellets were resuspended in buffer consisting of 50 mM Tris (pH 7.4 at 25° C.), 150 mM NaCl and 5 mM KCl. […] Amount of radioligand bound in the presence and absence of competitor was analyzed by plotting (−)log drug concentration versus the amount of radioligand specifically bound. […] Ki values were calculated using the method of Cheng and Prusoff Cheng and Prusoff [Cheng, Y.-C. and Prusoff, W. H., Biochemical Pharmacology, Vol. 22, pp. 3099-3108, Pergamon Press (1973)].

T1 sequence (P25103 whole entry): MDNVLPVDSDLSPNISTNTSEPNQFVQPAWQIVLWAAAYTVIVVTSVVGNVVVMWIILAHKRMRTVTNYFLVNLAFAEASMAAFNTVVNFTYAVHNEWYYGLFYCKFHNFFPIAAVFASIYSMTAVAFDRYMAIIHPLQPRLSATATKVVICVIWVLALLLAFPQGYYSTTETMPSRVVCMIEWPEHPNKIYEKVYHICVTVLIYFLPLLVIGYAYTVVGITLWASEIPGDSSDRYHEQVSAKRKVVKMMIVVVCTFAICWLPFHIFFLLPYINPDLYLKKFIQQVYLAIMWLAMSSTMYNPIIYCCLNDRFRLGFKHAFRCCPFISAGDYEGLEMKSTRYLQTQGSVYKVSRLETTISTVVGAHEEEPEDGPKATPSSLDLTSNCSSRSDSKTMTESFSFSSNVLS
T2 sequence (P31645 whole entry): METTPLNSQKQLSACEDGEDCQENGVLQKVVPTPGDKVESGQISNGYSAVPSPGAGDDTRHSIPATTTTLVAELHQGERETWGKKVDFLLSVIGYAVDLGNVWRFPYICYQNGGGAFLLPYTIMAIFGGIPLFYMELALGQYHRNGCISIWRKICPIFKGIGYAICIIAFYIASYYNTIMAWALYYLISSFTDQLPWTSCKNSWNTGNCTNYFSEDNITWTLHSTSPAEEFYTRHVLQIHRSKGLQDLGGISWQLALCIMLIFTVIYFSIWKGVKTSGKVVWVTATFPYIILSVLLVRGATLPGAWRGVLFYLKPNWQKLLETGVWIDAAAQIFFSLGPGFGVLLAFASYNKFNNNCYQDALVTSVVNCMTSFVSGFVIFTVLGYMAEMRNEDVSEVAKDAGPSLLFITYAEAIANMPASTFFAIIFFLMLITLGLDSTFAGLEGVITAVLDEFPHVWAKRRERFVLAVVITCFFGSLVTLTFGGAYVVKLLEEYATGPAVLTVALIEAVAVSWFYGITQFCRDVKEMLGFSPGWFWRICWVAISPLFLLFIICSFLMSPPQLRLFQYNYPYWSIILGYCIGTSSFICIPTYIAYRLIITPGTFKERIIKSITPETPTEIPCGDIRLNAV

IC50 [1] [nM]	IC50 [2] [nM]	Structure (SMILES)
< 20	20 to 100	FC(F)(F)c1cc(COCC2(c3ccccc3)CCCCNCC2)cc(C(F)(F)F)c1 (stereo not shown) [Example 1, 4-((3,5-bis(trifluoromethyl)benzyloxy)methyl)-4-phenylazocane]
< 20	20 to 100	FC(F)(F)c1cc(COCC2(c3ccccc3)CCCNCCC2)cc(C(F)(F)F)c1 [Example 2, 5-((3,5-bis(trifluoromethyl)benzyloxy)methyl)-5-phenylazocane]
